Experimental data reported in PubChem BioAssay (NCI).
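Where inhibition never reached the appropriate level, the endpoint shown equals the highest concentration tested. Otherwise, values were interpolated linearly from a five-concentration, 48-hour dose response in 96-well plates. Abbreviation: GI50, concentration required for 50% inhibition of growth. TGI: concentration producing complete growth inhibition.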

Assays:
Assay in all cases: inhibition of tumour cell growth, NCI panel, 48 h
786-0 renal = tested on: 786-0 renal
HCC-2998 colon = tested on: HCC-2998 colon
HL-60(TB) leukemia = tested on: HL-60(TB) leukemia
KM12 colon = tested on: KM12 colon
MCF7 breast = tested on: MCF7 breast
MOLT-4 leukemia = tested on: MOLT-4 leukemia
SK-OV-3 ovarian = tested on: SK-OV-3 ovarian
SR leukemia = tested on: SR leukemia
SW-620 colon = tested on: SW-620 colon
TK-10 renal = tested on: TK-10 renal

COC(=O)[C@H](Cc1ccccc1)NC(=O)[C@@H](OC)[C@@H]1Cc2cc3cc(OC4CC(OC5CC(O)C(O)C(C)O5)C(O)C(C)O4)c(C)c(O)c3c(O)c2C(=O)[C@H]1OC1CC(OC2CC(OC3CC(C)(O)C(O)C(C)O3)C(O)C(C)O2)C(O)C(C)O1 (stereo not given in full)
GI50 (786-0 renal): 0.0188 µM | TGI (786-0 renal): > 14.3 µM | GI50 (HCC-2998 colon): 0.0158 µM | TGI (HCC-2998 colon): 0.0478 µM | GI50 (HL-60(TB) leukemia): 0.0336 µM | TGI (HL-60(TB) leukemia): 0.649 µM | GI50 (KM12 colon): 0.0148 µM | TGI (KM12 colon): 0.12 µM | GI50 (MCF7 breast): 0.00534 µM | TGI (MCF7 breast): 0.241 µM | GI50 (MOLT-4 leukemia): 0.017 µM | TGI (MOLT-4 leukemia): 0.161 µM | GI50 (SK-OV-3 ovarian): 0.0509 µM | TGI (SK-OV-3 ovarian): > 14.3 µM | GI50 (SR leukemia): 0.00736 µM | TGI (SR leukemia): 1.04 µM | GI50 (SW-620 colon): 0.0196 µM | TGI (SW-620 colon): > 14.3 µM | GI50 (TK-10 renal): 0.0439 µM | TGI (TK-10 renal): > 14.3 µM

CC(=O)OC1=C2C(CC3C4CC=C5CC(OC(C)=O)CCC5(C)C4CCC23C)C2C(=O)N(Cc3ccccc3)C(=O)C2C1 (stereo not given)
GI50 (786-0 renal): 20.5 µM | TGI (786-0 renal): > 100 µM | GI50 (HCC-2998 colon): 11.4 µM | TGI (HCC-2998 colon): 67 µM | GI50 (HL-60(TB) leukemia): 3.65 µM | TGI (HL-60(TB) leukemia): 17.8 µM | GI50 (KM12 colon): 5.98 µM | TGI (KM12 colon): 46.8 µM | GI50 (MCF7 breast): 2.71 µM | TGI (MCF7 breast): 15 µM | GI50 (MOLT-4 leukemia): 2.93 µM | TGI (MOLT-4 leukemia): 8.37 µM | GI50 (SK-OV-3 ovarian): 17.7 µM | TGI (SK-OV-3 ovarian): > 100 µM | GI50 (SR leukemia): 3.62 µM | TGI (SR leukemia): 16.6 µM | GI50 (SW-620 colon): 12.2 µM | TGI (SW-620 colon): > 100 µM | GI50 (TK-10 renal): 47.4 µM | TGI (TK-10 renal): > 100 µM

Cc1nc2ccc(NCCN(C)C)c3c(=O)c4cc(O)ccc4n1c23
TGI (786-0 renal): 10.5 µM | TGI (HCC-2998 colon): 1.71 µM | TGI (HL-60(TB) leukemia): 3.1 µM | TGI (KM12 colon): 4.09 µM | TGI (MCF7 breast): 11.5 µM | TGI (MOLT-4 leukemia): 0.904 µM | TGI (SK-OV-3 ovarian): 8.98 µM | TGI (SR leukemia): 0.248 µM | TGI (SW-620 colon): 4.53 µM | TGI (TK-10 renal): 12.5 µM

CCC(C)CC(CC)NCCN1CCN(C(CC)CC(C)CC)C1=S (stereo not given)
GI50 (786-0 renal): 1.83 µM | TGI (786-0 renal): 3.3 µM | GI50 (HCC-2998 colon): 1.57 µM | TGI (HCC-2998 colon): 2.9 µM | GI50 (HL-60(TB) leukemia): 1.93 µM | TGI (HL-60(TB) leukemia): 3.77 µM | GI50 (KM12 colon): 1.71 µM | TGI (KM12 colon): 3.22 µM | GI50 (MCF7 breast): 1.63 µM | TGI (MCF7 breast): 2.98 µM | GI50 (MOLT-4 leukemia): 2.22 µM | TGI (MOLT-4 leukemia): 5.19 µM | GI50 (SK-OV-3 ovarian): 1.86 µM | TGI (SK-OV-3 ovarian): 3.36 µM | GI50 (SR leukemia): 1.87 µM | TGI (SR leukemia): 4.12 µM | GI50 (SW-620 colon): 1.89 µM | TGI (SW-620 colon): 3.55 µM | GI50 (TK-10 renal): 3.16 µM | TGI (TK-10 renal): 11 µM

COC(=O)[C@]12CC[C@@H](C)[C@H](C)[C@@H]1C1=CC[C@@H]3[C@@]4(C)C=C(O)C(=O)C(C)=C4CC[C@@]3(C)[C@]1(C)CC2
GI50 (786-0 renal): 16.4 µM | TGI (786-0 renal): 32.6 µM | GI50 (HCC-2998 colon): 8.6 µM | TGI (HCC-2998 colon): 23.3 µM | GI50 (HL-60(TB) leukemia): 13.7 µM | TGI (HL-60(TB) leukemia): 35.7 µM | GI50 (KM12 colon): 7.72 µM | TGI (KM12 colon): 21.8 µM | GI50 (MCF7 breast): 10.8 µM | TGI (MCF7 breast): 26.9 µM | GI50 (MOLT-4 leukemia): 4.71 µM | TGI (MOLT-4 leukemia): 20.7 µM | GI50 (SK-OV-3 ovarian): 15.6 µM | TGI (SK-OV-3 ovarian): 38.4 µM | GI50 (SR leukemia): 5.29 µM | TGI (SR leukemia): 28.2 µM | GI50 (SW-620 colon): 17.3 µM | TGI (SW-620 colon): 35.7 µM | GI50 (TK-10 renal): 18.2 µM | TGI (TK-10 renal): 35.8 µM

CC(C)(C)c1nnc2n(c1=O)N=CC(c1ccc(Br)cc1)S2 (stereo not given)
GI50 (786-0 renal): 32.3 µM | TGI (786-0 renal): > 100 µM | GI50 (HCC-2998 colon): 26.3 µM | TGI (HCC-2998 colon): 56.7 µM | GI50 (HL-60(TB) leukemia): 39 µM | TGI (HL-60(TB) leukemia): > 100 µM | GI50 (KM12 colon): 26.1 µM | TGI (KM12 colon): > 100 µM | GI50 (MCF7 breast): 42 µM | TGI (MCF7 breast): > 100 µM | GI50 (MOLT-4 leukemia): 31.5 µM | TGI (MOLT-4 leukemia): > 100 µM | GI50 (SK-OV-3 ovarian): 89.9 µM | TGI (SK-OV-3 ovarian): > 100 µM | GI50 (SR leukemia): 24.2 µM | TGI (SR leukemia): 80.7 µM | GI50 (SW-620 colon): 35.1 µM | TGI (SW-620 colon): > 100 µM | GI50 (TK-10 renal): 34.7 µM | TGI (TK-10 renal): > 100 µM

COc1ccc(C(=O)N/N=C/c2ccc(O)cc2O)cc1Nc1ccnc(C(F)(F)F)c1
GI50 (786-0 renal): 0.998 µM | TGI (786-0 renal): 9.62 µM | GI50 (HCC-2998 colon): 0.513 µM | TGI (HCC-2998 colon): 22.1 µM | GI50 (HL-60(TB) leukemia): 0.291 µM | TGI (HL-60(TB) leukemia): 0.923 µM | GI50 (KM12 colon): 1.82 µM | TGI (KM12 colon): 13.9 µM | GI50 (MCF7 breast): 1.57 µM | TGI (MCF7 breast): 16.5 µM | GI50 (MOLT-4 leukemia): 0.357 µM | TGI (MOLT-4 leukemia): 2.59 µM | GI50 (SK-OV-3 ovarian): 0.725 µM | TGI (SK-OV-3 ovarian): 18.8 µM | GI50 (SR leukemia): 0.148 µM | TGI (SR leukemia): 0.452 µM | GI50 (SW-620 colon): 1.16 µM | TGI (SW-620 colon): 24.2 µM | GI50 (TK-10 renal): 0.994 µM | TGI (TK-10 renal): 58.6 µM

O=C1C=C(Nc2nc(C(=O)O)cc(=O)[nH]2)c2ccccc2C1=O
TGI (786-0 renal): > 100 µM | TGI (HCC-2998 colon): > 100 µM | TGI (HL-60(TB) leukemia): > 100 µM | TGI (KM12 colon): > 100 µM | TGI (MCF7 breast): > 100 µM | TGI (MOLT-4 leukemia): > 100 µM | TGI (SK-OV-3 ovarian): > 100 µM | TGI (SR leukemia): > 100 µM | TGI (SW-620 colon): > 100 µM | TGI (TK-10 renal): > 100 µM

C[C@@]12CCC[C@@](C)(C(=O)O)C1CC[C@@]13CC(=O)[C@@](CO)(CCC12)C3 (stereo not given in full)
GI50 (786-0 renal): > 100 µM | TGI (786-0 renal): > 100 µM | GI50 (HCC-2998 colon): > 100 µM | TGI (HCC-2998 colon): > 100 µM | GI50 (HL-60(TB) leukemia): > 100 µM | TGI (HL-60(TB) leukemia): > 100 µM | GI50 (KM12 colon): > 100 µM | TGI (KM12 colon): > 100 µM | GI50 (MCF7 breast): > 100 µM | TGI (MCF7 breast): > 100 µM | GI50 (MOLT-4 leukemia): > 100 µM | TGI (MOLT-4 leukemia): > 100 µM | GI50 (SK-OV-3 ovarian): > 100 µM | TGI (SK-OV-3 ovarian): > 100 µM | GI50 (SR leukemia): > 100 µM | TGI (SR leukemia): > 100 µM | GI50 (SW-620 colon): > 100 µM | TGI (SW-620 colon): > 100 µM | GI50 (TK-10 renal): > 100 µM | TGI (TK-10 renal): > 100 µM

CC(C)[C@@H](CS(=O)(=O)C(C)C)N1C(=O)[C@@](C)(CC(=O)O)C[C@H](c2cccc(Cl)c2)[C@H]1c1ccc(Cl)cc1
GI50 (786-0 renal): 20.8 µM | TGI (786-0 renal): 75.2 µM | GI50 (HCC-2998 colon): 16.7 µM | TGI (HCC-2998 colon): 37.7 µM | GI50 (HL-60(TB) leukemia): 17.7 µM | TGI (HL-60(TB) leukemia): 46.8 µM | GI50 (KM12 colon): 16 µM | TGI (KM12 colon): > 51.6 µM | GI50 (MCF7 breast): 0.282 µM | TGI (MCF7 breast): 3.52 µM | GI50 (MOLT-4 leukemia): 0.338 µM | TGI (MOLT-4 leukemia): 11.1 µM | GI50 (SK-OV-3 ovarian): 19.2 µM | TGI (SK-OV-3 ovarian): 73.2 µM | GI50 (SR leukemia): 0.249 µM | TGI (SR leukemia): > 40.7 µM | GI50 (SW-620 colon): 25.5 µM | TGI (SW-620 colon): > 100 µM | GI50 (TK-10 renal): 28.2 µM | TGI (TK-10 renal): 97 µM

Nc1c(O)c(S(=O)(=O)O)c(O)c2c1C(=O)c1ccccc1C2=O
GI50 (786-0 renal): 4.73 µM | TGI (786-0 renal): 41.3 µM | GI50 (HCC-2998 colon): 2.84 µM | TGI (HCC-2998 colon): 32.8 µM | GI50 (HL-60(TB) leukemia): 1.56 µM | TGI (HL-60(TB) leukemia): 3.65 µM | GI50 (KM12 colon): 2.94 µM | TGI (KM12 colon): 12.8 µM | GI50 (MCF7 breast): 2.5 µM | TGI (MCF7 breast): 8.13 µM | GI50 (MOLT-4 leukemia): 1.9 µM | TGI (MOLT-4 leukemia): 4.91 µM | GI50 (SK-OV-3 ovarian): 1.98 µM | TGI (SK-OV-3 ovarian): 5.36 µM | GI50 (SR leukemia): 2.03 µM | TGI (SR leukemia): 7.17 µM | GI50 (SW-620 colon): 3.24 µM | TGI (SW-620 colon): > 100 µM | GI50 (TK-10 renal): 2.91 µM | TGI (TK-10 renal): 9.73 µM

CCOC(=O)c1cnc2c(cnn2CC)c1NN=C(C)C
GI50 (786-0 renal): 29.6 µM | TGI (786-0 renal): > 100 µM | GI50 (HCC-2998 colon): > 100 µM | TGI (HCC-2998 colon): > 100 µM | GI50 (HL-60(TB) leukemia): 59 µM | TGI (HL-60(TB) leukemia): > 100 µM | GI50 (KM12 colon): 67.1 µM | TGI (KM12 colon): > 100 µM | GI50 (MCF7 breast): 90.4 µM | TGI (MCF7 breast): > 100 µM | GI50 (MOLT-4 leukemia): 64.7 µM | TGI (MOLT-4 leukemia): > 100 µM | GI50 (SK-OV-3 ovarian): 55.7 µM | TGI (SK-OV-3 ovarian): > 100 µM | GI50 (SR leukemia): 33.6 µM | TGI (SR leukemia): > 100 µM | GI50 (SW-620 colon): 83.8 µM | TGI (SW-620 colon): > 100 µM | GI50 (TK-10 renal): 27.1 µM | TGI (TK-10 renal): > 100 µM
